# Measured values: PMC6933707, “Palmitoylethanolamide counteracts substance P-induced mast cell activation in vitro by stimulating diacylglycerol lipase activity” (Journal of Neuroinflammation, 2019)
# What was measured:
# human CB2 receptor = human CB2 receptor (Homo sapiens, UniProt P34972); assay: cAMP Hunter functional activity assay at the CB2 receptors; assay type: cell-based; design: host or cells: CHO-K1; conditions: 10 μM, highest concentration tested, CHO-K1 cells overexpressing human CB2
# Protocol: The cAMP Hunter™ eXpress G protein-coupled receptor (GPCR) assay was performed in Chinese Hamster Ovary (CHO)-Kl cells overexpressing the human CB2 receptor. Gi-coupled cAMP modulation was measured following the manufacturer’s protocol (DiscoverX, Fremont, CA). CHO-K1 cells overexpressing the human CB2 receptor were plated into a 96-well plate (3× 10^4 cells/well) and incubated overnight at 37 °C in 5% CO2 atmosphere. The media were aspirated and replaced with 30 μl of assay buffer. Cells were incubated 30 min at 37 °C with 15 μl of 3× concentration-response solutions of 2-AG (0.01–50 μM), or PEA (10 μM), prepared in presence of cell assay buffer containing a 3× of 25 μM NKH-477 solution (a water-soluble analog of Forskolin) to stimulate adenylate cyclase and enhance basal cAMP levels. We also investigated the effect of PEA on 2-AG receptor activation by co-incubation. Therefore, cells were also incubated 30 min at 37 °C with 2-AG and PEA (10 μM) in the presence of NKH-477 to stimulate adenylate cyclase and enhance cAMP levels. […] Relative luminescence units (RLU) were measured by using a GloMax Multi Detection System (Promega Italia). […] The percentage of response was calculated by using the following formula: % RESPONSE = 100% × (1-(RLU of test compound-RLU of NKH-477 positive control)/(RLU of vehicle-RLU of NKH-477 positive control).
# RBL-2H3 cells [1] = assay: Toluidine blue staining, percentage of degranulation; assay type: cell-based, rat
# Protocol: SP-stimulated RBL-2H3 cells [plated on poly-L-lysine (33 μg/ml) coated slides (Deckglaser, 21 × 26 mm) into 6-well culture dishes at a cell density of 9 × 10^5 cells per well] were treated and incubated as described above for histamine release assay. After 15 min, the cells were fixed with paraformaldehyde at 4% for 20 min and incubated for 3 min with toluidine blue at 0.01% in 3% acetic acid. Subsequently, a 5 min wash in distilled water and dehydration in increasing alcohols (90%, 100%) were performed. Cells were then clarified by treatment with Xylol for 5 min and finally dried slides were mounted with the DPX histogram upright. The cells were observed using a Leica DMI6000 digital microscope, acquired using the Leica DFC 340FX digital camera connected to the microscope and analyzed using the LAS AF 2.2.0 software. Degranulated RBL-2H3 cells were counted and the percentage of degranulation (based on the number of colorable cells) was calculated.
# RBL-2H3 cells [2] = assay: β-Hexosaminidase release assay; assay type: cell-based, rat; conditions: 15 min
# Protocol: RBL-2H3 cells were plated into 24-well culture dishes at a cell density of 2 × 10^5 cells per well, or into 6-well culture dishes at a cell density of 9 × 10^5 cells per well, for 1 day at 37 °C in 5% CO2 atmosphere. After 1 day, RBL-2H3 cells were stimulated with SP (10 μM) or vehicle (water) and incubated for 15 min at 37 °C in 5% CO2 atmosphere.
# SP-stimulated RBL-2H3 cells (2 × 10^5 cells/well) were treated with PEA (0.1, 0.5, 1, and 10 μM) or vehicle (methanol, max 0.1%) for 15 min at 37 °C in 5% CO2 atmosphere. After 15 min, the supernatants (15 μl) were transferred to 96-well plates and incubated with 60 μl of substrate (1 mM p-nitrophenyl-N-acetyl-β-D-glucosaminide in citrate 0.05 M, pH 4.5) for 1 h at 37 °C. To determine the total amount of released β-hexosaminidase, the cells were lysed with 0.1% Triton X-100 and incubated with substrate using the same procedure as for the determination of the activity in the supernatants. The reaction was stopped by adding 150 μl of 0.1 M sodium bicarbonate buffer (pH 10.0), and the reaction product was monitored by measuring the optical density (OD) at 405 nm by using a reader GENios Pro (Tecan). The results were expressed as % of the total β-hexosaminidase content of the cells determined by cell lysis with 0.1% Triton X-100, and calculated by using the following formula: % degranulation = [ODsupernatant/(ODsupernatant + ODtriton x−100)] × 100.
# RBL-2H3 cells [3] = assay: Quantitative real-time PCR of PEA/2-AG receptors and metabolic enzymes; assay type: cell-based, rat; conditions: cells stimulated 15 min with SP 10 μM or PEA 10 μM or both, vs unstimulated
# From the text: The mRNA expression of PEA target genes (Cnr1, Cnr2, Trpv1, Ppara, and Gpr55), as well as PEA and 2-AG biosynthetic (N-acyl phosphatidylethanolamine-specific phospholipase D, Napepld, Dagla and Daglb) and catabolic enzyme genes (fatty acid amide hydrolase, Faah; N-acylethanolamine-hydrolyzing acid amidase, Naaa; and monoacylglycerol lipase, Mgl), was studied by comparison of transcriptional expression in unstimulated RBL-2H3 cells (plated on 100 mm diameter Petri dishes) vs. the expression of these targets and enzymes in RBL-2H3 cells treated with PEA (10 μM), or stimulated with SP (10 μM) in the presence and absence of PEA (10 μM), for 15 min at 37 °C in 5% CO2 atmosphere. Total RNA was purified, quantified and reverse transcribed as previously reported. For each target, all mRNA sequences were aligned and common primers were designed (Table 1). Quantitative real-time PCR was performed by an iCycler-iQ5 in a 20 μl reaction mixture using 20 ng of cDNA. Assays were performed in quadruplicate (maximum ΔCt of replicate samples < 0.5). Optimized primers for SYBR-green analysis and optimum annealing temperatures were designed by the Allele-Id software version 7.0 (Biosoft International) and were synthesized (HPLC-purification grade) by MWG-Biotech. […] Results were expressed as fold expression compared with a reference condition (2^^−∆∆ct formula).
# Chain of human CB2 receptor (P34972 whole entry): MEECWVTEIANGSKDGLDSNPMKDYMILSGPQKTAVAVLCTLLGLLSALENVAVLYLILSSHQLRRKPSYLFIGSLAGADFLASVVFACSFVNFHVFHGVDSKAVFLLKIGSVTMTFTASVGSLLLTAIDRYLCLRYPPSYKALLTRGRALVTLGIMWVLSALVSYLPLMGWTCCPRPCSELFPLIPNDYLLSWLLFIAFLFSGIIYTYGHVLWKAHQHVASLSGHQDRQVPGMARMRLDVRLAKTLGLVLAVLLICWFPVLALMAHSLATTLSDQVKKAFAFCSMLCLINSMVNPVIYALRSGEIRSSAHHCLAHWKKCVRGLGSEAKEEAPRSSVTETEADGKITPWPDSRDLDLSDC
smiles,measurement,setting,value
"CCCCCCCCCCCCCCCC(=O)NCCO [PEA, Palmitoylethanolamide]",effect on NKH-477-induced cAMP levels (CB2 activation),human CB2 receptor,failed at decreasing cAMP levels
same,number of degranulated cells,"RBL-2H3 cells [1]; SP (10 μM)-stimulated cells, compound 0.1 μM, 15 min, vs SP + vehicle",comparable
same,number of degranulated cells,"RBL-2H3 cells [1]; SP (10 μM)-stimulated cells, compound 10 μM, 15 min, vs SP + vehicle",reduced the number of SP-degranulated RBL-2H3 cells
same,number of degranulated cells,"RBL-2H3 cells [1]; SP-stimulated cells co-treated with PEA 0.1 μM and 2-AG 0.1 μM, 15 min",able to reduce
same,number of degranulated cells,"RBL-2H3 cells [1]; SP-stimulated cells co-treated with PEA 10 μM and AM630 0.1 μM, vs SP + vehicle or SP + AM630",comparable
same,number of degranulated cells,"RBL-2H3 cells [1]; substance alone 10 μM, 15 min, vs vehicle",no effect
same,β-hexosaminidase release,"RBL-2H3 cells [2]; SP (10 μM)-stimulated cells, PEA 0.1, 0.5, 1 and 10 μM, concentration-dependent, vs SP + vehicle",strongly reduced
same,β-hexosaminidase release,"RBL-2H3 cells [2]; substance alone 10 μM, vs vehicle-treated cells",No effect
same,"mRNA expression of Cnr2, Napepld, Naaa, Daglb, Faah and Mgl",RBL-2H3 cells [3],no statistically significant change
